Reference: patent US12653809B2, “Urea, amide, and substituted heteroaryl compounds for CBL-B inhibition” (Nurix Therapeutics, Inc., priority 2019, dated 2026)
Where two headings read alike, the source gives them in different places.

Molecular target: T1, Cbl-b (truncated variant, UniProt number Q13191) (Homo sapiens, UniProt Q13191)
T1 construct: made in house
Assay: Cbl-b activity assay (TR-FRET, interaction of Cbl-b with UbcH5B-Ub)
Assay type: biochemical
Text: As described in Biological Example 1A, a Cbl-b activity assay (Cbl-b inhibition assay) used to measure the IC50 values for Cbl-b inhibition uses a mixture comprising candidate compound, Cbl-b (truncated, with an Avitag, and biotinylated), a fluorescently-labeled E2 enzyme UbcH5B labelled with ubiquitin conjugated to BODIPY-fluorescein (UbcH5B-Ub), streptavidin-terbium, and assay buffer. In one embodiment, the Cbl-b activity assay (Cbl-b inhibition assay) used to measure IC50 for inhibition of Cbl-b uses the conditions described in Biological Example 1A with 12 nM Cbl-b. […] In another embodiment, the Cbl-b activity assay (Cbl-b inhibition assay) used to measure IC50 for inhibition of Cbl-b uses the conditions described in Biological Example 1B, with candidate compound, 0.125 nM Cbl-b (truncated, with an avitag, and biotinylated), fluorescently labelled inhibitor probe, and assay buffer. Displacement of the inhibitor probe indicates Cbl-b activity.
Candidate compounds isolated from screening assays were evaluated for their ability to bind and inhibit Cbl-b, an E3 ubiquitin-protein ligase.
The ability of candidate compounds to inhibit Cbl-b activity was measured by monitoring the interaction of Cbl-b with UbcH5B-Ub in the presence of the candidate compound. A truncated variant of Cbl-b (UniProt number Q13191; SEQ ID NO:1) containing an Avitag at its N-terminus was co-expressed with BirA biotin ligase and purified using a standard protocol (see Dou et al., Nature Structural and Molecular Biology 8: 982-987, 2013; Avidity LLC).
Fluorescently labeled UbcH5B-Ub was prepared by conjugating ubiquitin (Ub), labeled at its N-terminus with Bodipy-Fluorescein, to UbcH5B, an E2 enzyme, harboring a cysteine to lysine mutation at position 85. This mutation is similar to a mutation that was previously reported (see Dou et al., Nature Structural and Molecular Biology 8: 982-987, 2013). Cbl-b activity assays were performed in a 384-well plate at room temperature in a 10 μL reaction volume by pre-incubating 12 nM Cbl-b (final concentration) in an assay buffer containing 50 mM HEPES pH 7.0, 100 mM NaCl, 0.01% Triton X-100, 0.01% BSA, and 1 mM DTT in the presence of a candidate compound in 1% DMSO (final concentration, High Conditions) for one hour. After incubation in the presence of the candidate compound, the plate was incubated for an additional 1.5 hours in the presence of 60 nM Src kinase with 1 mM ATP and 5 mM MgCl2 (final concentrations). Alternatively, compounds were tested as described above with assay buffer containing 50 mM NaCl instead of 100 mM NaCl and 30 nM Src kinase instead of 60 nM Src kinase (Low Conditions). Src kinase was prepared as previously described (see Kobashigawa et al., Proc Natl Acad Sci USA, 108: 20579-20584, 2011). […] The plate was incubated for one hour. Following the one hour incubation, the plates were read for TR-FRET signal at 520/620 nm using Envision plate reader (Perkin Elmer). The presence of a FRET signal that indicated Cbl-b was not inhibited by the compound candidate. The absence of a FRET signal indicated Cbl-b was inhibited by the compound candidate and was therefore a Cbl-b inhibitor.
The resulting data for the Cbl-b activity assays were analyzed using standard methods to report the IC50 values of the tested compounds (Tables 3-4). The resulting data for the Cbl-b binding assay was solvent corrected and double-referenced prior to analysis. All data were globally fit to a steady-state affinity and kinetic binding model where applicable. Compounds were ranked into bins A through D as follows for IC50: A indicates <0.1 μM, B indicates 0.1 μM≤IC50<1 μM, C indicates 1 μM≤IC50<5 μM, and D indicates 5 μM≤IC50.

[1] = high conditions: 100 mM NaCl, 60 nM Src kinase, 12 nM Cbl-b, read-out: Cbl-b activity IC50
[2] = Biological Example 1A, low or high conditions not stated, read-out: IC50 values in the Cbl-b inhibition assay of Biological Example 1A

T1 sequence (Q13191 36-427): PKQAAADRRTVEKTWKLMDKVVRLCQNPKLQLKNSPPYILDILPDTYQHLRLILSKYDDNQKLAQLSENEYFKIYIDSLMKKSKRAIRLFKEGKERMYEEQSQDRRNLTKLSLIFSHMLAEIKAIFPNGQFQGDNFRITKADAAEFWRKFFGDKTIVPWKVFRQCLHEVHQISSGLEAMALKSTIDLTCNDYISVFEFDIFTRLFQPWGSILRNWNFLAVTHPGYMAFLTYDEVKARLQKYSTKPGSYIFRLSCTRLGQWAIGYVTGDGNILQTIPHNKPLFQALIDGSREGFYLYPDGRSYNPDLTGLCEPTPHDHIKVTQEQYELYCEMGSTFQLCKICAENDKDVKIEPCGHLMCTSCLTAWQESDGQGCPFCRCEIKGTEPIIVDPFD

Compound | IC50 [1] [µM] | IC50 [2] [µM]
Cc1ccc2[nH]nc(-c3cccc([C@H](C)Cc4nncn4C)c3)c2n1 [Example 119, (R)-5-methyl-3-(3-(1-(4-methyl-4H-1,2,4-triazol-3-yl)propan-2-yl)phenyl)-1H-pyrazolo [4,3-b]pyridine] | 1 to 5 | 
Cc1cnnc(NC(=O)Nc2cccc([C@H](C)Sc3nncn3C)c2)c1 [Example 39, (S)-1-(3-(1-((4-methyl-4H-1,2,4-triazol-3-yl)thio)ethyl)phenyl)-3-(5-methylpyridazin-3-yl)urea] | 1 to 5 | 1 to 5
C[C@H](Sc1nncn1C)c1cccc(-c2cc(-c3cccc(Cl)c3)no2)c1 [Example 58, 3-[[(1S)-1-[3-[3-(3-chlorophenyl)-1,2-oxazol-5-yl]phenyl]ethyl]sulfanyl]-4-methyl-4H-1,2,4-triazole] | 1 to 5 | 
C[C@H](Sc1nncn1C)c1cccc(-n2cc(-c3ccc(C(N)=O)cc3)nn2)c1 [Example 87, (S)-4-(1-(3-(1-(4-methyl-4H-1,2,4-triazol-3-ylthio)ethyl)phenyl)-1H-1,2,3-triazol-4-yl)benzamide] | 1 to 5 | 1 to 5
CC(Sc1nncn1C)c1ccnc(-n2ncc(-c3ccccc3)n2)c1 (stereo not drawn) [Example 101, 4-(1-((4-methyl-4H-1,2,4-triazol-3-yl)thio)ethyl)-2-(4-phenyl-2H-1,2,3-triazol-2-yl)pyridine] | ≥ 5 | ≥ 5
C[C@H](Sc1nncn1C)c1cccc(-c2cc(-c3ccc(Cl)cc3)no2)c1 [Example 57, (S)-3-(4-chlorophenyl)-5-(3-(1-((4-methyl-4H-1,2,4-triazol-3-yl)thio)ethyl)phenyl)isoxazole] | 1 to 5 | 
C[C@H](Sc1nncn1C)c1cccc(-c2cc(-c3ccccc3)no2)c1 [Example 67, (S)-5-(3-(1-((4-methyl-4H-1,2,4-triazol-3-yl)thio)ethyl)phenyl)-3-phenylisoxazole] | 1 to 5 | 1 to 5
C[C@H](Sc1nncn1C)c1cccc(NC(=O)N2CCOC3(CCC3)C2)c1 [Example 43, (S)—N-(3-(1-((4-methyl-4H-1,2,4-triazol-3-yl)thio)ethyl)phenyl)-5-oxa-8-azaspiro[3.5]nonane-8-carboxamide] | ≥ 5 | 
C[C@H](Cc1nncn1C)c1cccc(-c2n[nH]c3c(N4CC[C@@H](O)C4)cc(C(F)(F)F)nc23)c1 [Example 112, (R)-1-(3-(3-((R)-1-(4-methyl-4H-1,2,4-triazol-3-yl)propan-2-yl)phenyl)-5-(trifluoromethyl)-1H-pyrazolo[4,3-b]pyridin-7-yl)pyrrolidin-3-ol] | 0.1 to 1 | 
Cn1cnnc1CC1(c2cccc(C(=O)Nc3cccc(C4CC4)n3)c2)COC1 [Example 37, N-(6-cyclopropylpyridin-2-yl)-3-(3-((4-methyl-4H-1,2,4-triazol-3-yl)methyl)oxetan-3-yl)benzamide] | ≥ 5 | ≥ 5
Cc1cccc(NC(=O)c2cccc(C3(Cc4nncn4C)COC3)c2)n1 [Example 38, 3-(3-((4-methyl-4H-1,2,4-triazol-3-yl)methyl)oxetan-3-yl)-N-(6-methylpyridin-2-yl)benzamide] | ≥ 5 | ≥ 5
C[C@H](Sc1nncn1C)c1cccc(NC(=O)N2CCc3ccccc32)c1 [Example 7, (S)—N-(3-(1-((4-methyl-4H-1,2,4-triazol-3-yl)thio)ethyl)phenyl)indoline-1-carboxamide] | ≥ 5 | 
COc1cccc(-c2cn(-c3cccc([C@H](C)Sc4nncn4C)c3)nn2)c1 [Example 77, (S)-4-(3-methoxyphenyl)-1-(3-(1-((4-methyl-4H-1,2,4-triazol-3-yl)thio)ethyl)phenyl)-1H-1,2,3-triazole] | 1 to 5 | 
CNS(=O)(=O)c1cc(NC(=O)Nc2cccc([C@H](C)Sc3nncn3C)c2)ccc1C [Example 144, (S)—N,2-dimethyl-5-(3-(3-(1-((4-methyl-4H-1,2,4-triazol-3-yl)thio)ethyl)phenyl)ureido)benzenesulfonamide] | ≥ 5 | 
Cn1cnnc1CC1(c2cccc(N3CC4C(C(F)(F)F)CCN4C3=O)c2)COC1 (stereo not drawn) [Example 32, 2-(3-(3-((4-methyl-4H-1,2,4-triazol-3-yl)methyl)oxetan-3-yl)phenyl)-7-(trifluoromethyl)hexahydro-3H-pyrrolo[1,2-c]imidazol-3-one] | 1 to 5 | 1 to 5
C[C@H](Sc1nncn1C)c1cccc(NC(=O)N2CCN(C3CC3)C(=O)C2)c1 [Example 156, (S)-4-cyclopropyl-N-(3-(1-((4-methyl-4H-1,2,4-triazol-3-yl)thio)ethyl)phenyl)-3-oxopiperazine-1-carboxamide] | ≥ 5 | 
C[C@H](Sc1nncn1C)c1cccc(-n2ncc(-c3ccc(C(=O)O)cc3)n2)c1 [Example 80, (S)-4-(2-(3-(1-(4-methyl-4H-1,2,4-triazol-3-ylthio)ethyl)phenyl)-2H-1,2,3-triazol-4-yl)benzoic acid] | ≥ 5 | ≥ 5
CC(=O)N1CCN(C(=O)Nc2cccc([C@H](C)Sc3nncn3C)c2)CC1 [Example 162, (S)-4-acetyl-N-(3-(1-(4-methyl-4H-1,2,4-triazol-3-ylthio)ethyl)phenyl)piperazine-1-carboxamide] | ≥ 5 | 
C[C@H](Sc1nncn1C)c1cccc(NC(=O)N2CCOC3(CC3)C2)c1 [Example 48, (S)—N-(3-(1-((4-methyl-4H-1,2,4-triazol-3-yl)thio)ethyl)phenyl)-4-oxa-7-azaspiro[2.5]octane-7-carboxamide] | ≥ 5 | 
C[C@H](Sc1nncn1C)c1cccc(NC(=O)N2CCC(c3ccccc3)C2)c1 (stereo partly drawn) [Example 127, N-(3-((S)-1-((4-methyl-4H-1,2,4-triazol-3-yl)thio)ethyl)phenyl)-3-phenylpyrrolidine-1-carboxamide] | ≥ 5 | 
C[C@H](Cc1nncn1C)c1cccc(NC(=O)N2C[C@H](CO)[C@@H](C)C2)c1 (relative stereo) [Example 17, (3R*,4R*)-3-(hydroxymethyl)-4-methyl-N-(3-((R)-1-(4-methyl-4H-1,2,4-triazol-3-yl)propan-2-yl)phenyl)pyrrolidine-1-carboxamide] | 1 to 5 | 1 to 5
C[C@H](Sc1nncn1C)c1cccc(NC(=O)N2CCOCC2CO)c1 (stereo partly drawn) [Example 146, 3-(hydroxymethyl)-N-(3-((S)-1-((4-methyl-4H-1,2,4-triazol-3-yl)thio)ethyl)phenyl)morpholine-4-carboxamide] | ≥ 5 | 
COc1cccc(-c2cnn(-c3cccc([C@H](C)Sc4nncn4C)c3)n2)c1 [Example 76, (S)-4-(3-methoxyphenyl)-2-(3-(1-((4-methyl-4H-1,2,4-triazol-3-yl)thio)ethyl)phenyl)-2H-1,2,3-triazole] | 1 to 5 | 
C[C@H](Sc1nncn1C)c1cccc(-n2cc(-c3cccc(C(N)=O)c3)nn2)c1 [Example 96, (S)-3-(1-(3-(1-(4-methyl-4H-1,2,4-triazol-3-ylthio)ethyl)phenyl)-1H-1,2,3-triazol-4-yl)benzamide] | 1 to 5 | 1 to 5
C[C@H](Sc1nncn1C)c1cccc(NC(=O)N2CC(C)(F)C2)c1 [Example 132, 3-fluoro-3-methyl-N-[3-[(1S)-1-[(4-methyl-4H-1,2,4-triazol-3-yl)sulfanyl]ethyl]phenyl]azetidine-1-carboxamide] | ≥ 5 | 
COc1ccc(-c2cn(-c3cccc([C@H](C)Sc4nncn4C)c3)nn2)cc1 [Example 75, (S)-4-(4-methoxyphenyl)-1-(3-(1-((4-methyl-4H-1,2,4-triazol-3-yl)thio)ethyl)phenyl)-1H-1,2,3-triazole] | 1 to 5 | 
